We go through two compounds from patent publication US8404710B2, “Phosphodiesterase 10A inhibitor” (Kyorin Pharmaceutical Co., Ltd., priority 2002, dated 2013).

Where only a bound is given, the exact number is not on record here.

In experiment [1] the target is PDE10A (Homo sapiens, UniProt Q9Y233). Conditions: human PDE10A gene product; cited from earlier work.
Experiment [2] has as its target T1, PDE1A3 (Homo sapiens, UniProt P54750).
T1 construct: cDNA of full length PDEs, specifically, PDE1A3; made in house; host or cells: Sf9 insect cells (baculovirus)
The experiment in a line: Inhibition of recombinant human PDE1A3 by ibudilast. Format: biochemical.

Experiment [3] has as its target T2, PDE2A3 (Homo sapiens, UniProt O00408).
T2 construct: cDNA of full length PDEs, specifically, PDE1A3, PDE2A3; made in house; host or cells: Sf9 insect cells (baculovirus)
Nature of the experiment: Inhibition of recombinant human PDE2A3 by ibudilast. In kind it is biochemical. As to conditions: PDE 2A3, substrate cAMP 2 μM.

Experiment [4] has as its target T3, PDE3B (Homo sapiens, UniProt Q13370).
T3 construct: cDNA of full length PDEs, specifically, PDE1A3, PDE2A3, PDE3A, PDE3B; made in house; host or cells: Sf9 insect cells (baculovirus); unpurified cell suspension in RIPA buffer
Nature of the experiment: Inhibition of recombinant human PDE3B by ibudilast (Sf9 cell suspension). In kind it is biochemical. Conditions: PDE 3B, substrate cAMP 2 μM.

Experiment [5] addresses PDE4A4 (Homo sapiens, UniProt P27815). The experiment in a line: Inhibition of recombinant human PDE4A4 by ibudilast. Format: biochemical. As to conditions: PDE 4A4, substrate cAMP 2 μM.
The target of experiment [6] is T4, PDE4C2 (Homo sapiens, UniProt Q08493).
T4 construct: cDNA of full length PDEs, specifically, PDE1A3, PDE2A3, PDE3A, PDE3B, PDE4A4, PDE4B2, PDE4C2; made in house; host or cells: Sf9 insect cells (baculovirus)
The experiment in a line: Inhibition of recombinant human PDE4C2 by ibudilast. Format: biochemical. As to conditions: PDE 4C2, substrate cAMP 2 μM.

Experiment [7] addresses T5, PDE4D3 (Homo sapiens, UniProt Q08499).
T5 construct: cDNA of full length PDEs, specifically, PDE1A3, PDE2A3, PDE3A, PDE3B, PDE4A4, PDE4B2, PDE4C2, PDE4D3; made in house; host or cells: Sf9 insect cells (baculovirus)
Nature of the experiment: Inhibition of recombinant human PDE4D3 by ibudilast. In kind it is biochemical. Conditions: PDE 4D3, substrate cAMP 2 μM.

Experiment [8] has as its target T6, PDE7A2 (Homo sapiens, UniProt Q13946).
T6 construct: cDNA of full length PDEs, specifically, PDE1A3, PDE2A3, PDE3A, PDE3B, PDE4A4, PDE4B2, PDE4C2, PDE4D3, PDE5A1, PDE5A2, PDE5A3, PDE7A2; made in house; host or cells: Sf9 insect cells (baculovirus)
The experiment in a line: Inhibition of recombinant human PDE7A2 by ibudilast. Format: biochemical. Conditions: PDE 7A2, substrate cAMP 0.2 μM.

For experiment [9], the target named is T7, PDE8A1 (Homo sapiens, UniProt O60658).
T7 construct: cDNA of full length PDEs, specifically, PDE1A3, PDE2A3, PDE3A, PDE3B, PDE4A4, PDE4B2, PDE4C2, PDE4D3, PDE5A1, PDE5A2, PDE5A3, PDE7A2, PDE8A1; made in house; host or cells: Sf9 insect cells (baculovirus)
The experiment in a line: Inhibition of recombinant human PDE8A1 by ibudilast. Format: biochemical. Conditions: PDE 8A1, substrate cAMP 0.2 μM.

Experiment [10] has as its target T8, PDE9A2 (Homo sapiens, UniProt O76083).
T8 construct: cDNA of full length PDEs, specifically, PDE1A3, PDE2A3, PDE3A, PDE3B, PDE4A4, PDE4B2, PDE4C2, PDE4D3, PDE5A1, PDE5A2, PDE5A3, PDE7A2, PDE8A1, PDE9A2; made in house; host or cells: Sf9 insect cells (baculovirus)
The experiment in a line: Inhibition of recombinant human PDE9A2 by ibudilast. Format: biochemical. As to conditions: PDE 9A2, substrate cGMP 0.2 μM.

The target of experiment [11] is T9, PDE10A1 (Homo sapiens, UniProt Q9Y233).
T9 construct: cDNA of full length PDEs, specifically, PDE1A3, PDE2A3, PDE3A, PDE3B, PDE4A4, PDE4B2, PDE4C2, PDE4D3, PDE5A1, PDE5A2, PDE5A3, PDE7A2, PDE8A1, PDE9A2, PDE10A1; made in house; host or cells: Sf9 insect cells (baculovirus)
T9 sequence (Q9Y233 1-779 isoform Q9Y233-1): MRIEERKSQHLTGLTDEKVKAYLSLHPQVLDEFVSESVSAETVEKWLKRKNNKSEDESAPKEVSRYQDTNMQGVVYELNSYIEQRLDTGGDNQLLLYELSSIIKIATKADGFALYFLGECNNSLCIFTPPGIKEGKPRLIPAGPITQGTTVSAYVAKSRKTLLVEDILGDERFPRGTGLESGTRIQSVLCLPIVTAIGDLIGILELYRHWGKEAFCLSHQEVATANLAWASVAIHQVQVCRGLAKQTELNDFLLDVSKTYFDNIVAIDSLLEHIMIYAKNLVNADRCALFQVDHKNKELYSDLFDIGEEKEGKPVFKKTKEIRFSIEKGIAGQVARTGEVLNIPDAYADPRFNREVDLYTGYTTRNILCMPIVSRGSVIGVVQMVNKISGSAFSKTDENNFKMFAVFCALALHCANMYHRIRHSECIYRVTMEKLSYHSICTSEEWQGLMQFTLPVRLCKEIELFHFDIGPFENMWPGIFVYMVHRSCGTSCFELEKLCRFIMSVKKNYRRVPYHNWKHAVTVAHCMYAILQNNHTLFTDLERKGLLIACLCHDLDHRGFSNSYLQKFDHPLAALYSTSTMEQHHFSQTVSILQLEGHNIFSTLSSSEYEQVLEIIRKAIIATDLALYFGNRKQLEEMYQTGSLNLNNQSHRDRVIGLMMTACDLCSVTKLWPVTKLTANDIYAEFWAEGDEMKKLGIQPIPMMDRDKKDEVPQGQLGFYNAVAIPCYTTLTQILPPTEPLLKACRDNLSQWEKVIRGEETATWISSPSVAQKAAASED
Nature of the experiment: Inhibition of recombinant human PDE10A1 by ibudilast. Format: biochemical.

Experiment [12] concerns the target T10, PDE11A1 (Homo sapiens, UniProt Q9HCR9).
T10 construct: cDNA of full length PDEs, specifically, PDE1A3, PDE2A3, PDE3A, PDE3B, PDE4A4, PDE4B2, PDE4C2, PDE4D3, PDE5A1, PDE5A2, PDE5A3, PDE7A2, PDE8A1, PDE9A2, PDE10A1, and PDE11A1; made in house; host or cells: Sf9 insect cells (baculovirus)
Nature of the experiment: Inhibition of recombinant human PDE11A1 by ibudilast. Format: biochemical.

T10 sequence (Q9HCR9 445-933): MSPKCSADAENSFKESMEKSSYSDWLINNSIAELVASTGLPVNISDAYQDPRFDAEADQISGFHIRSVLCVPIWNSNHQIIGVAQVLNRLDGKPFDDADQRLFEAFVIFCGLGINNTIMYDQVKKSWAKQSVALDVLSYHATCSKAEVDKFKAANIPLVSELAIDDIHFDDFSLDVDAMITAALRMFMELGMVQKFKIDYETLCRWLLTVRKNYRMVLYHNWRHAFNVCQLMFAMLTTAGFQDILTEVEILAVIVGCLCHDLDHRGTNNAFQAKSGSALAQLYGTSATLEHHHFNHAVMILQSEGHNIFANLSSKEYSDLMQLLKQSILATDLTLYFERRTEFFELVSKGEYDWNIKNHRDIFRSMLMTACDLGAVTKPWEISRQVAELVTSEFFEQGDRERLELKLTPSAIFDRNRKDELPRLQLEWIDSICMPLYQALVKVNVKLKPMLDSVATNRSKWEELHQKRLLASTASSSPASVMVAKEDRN
T1 sequence (P54750 whole entry): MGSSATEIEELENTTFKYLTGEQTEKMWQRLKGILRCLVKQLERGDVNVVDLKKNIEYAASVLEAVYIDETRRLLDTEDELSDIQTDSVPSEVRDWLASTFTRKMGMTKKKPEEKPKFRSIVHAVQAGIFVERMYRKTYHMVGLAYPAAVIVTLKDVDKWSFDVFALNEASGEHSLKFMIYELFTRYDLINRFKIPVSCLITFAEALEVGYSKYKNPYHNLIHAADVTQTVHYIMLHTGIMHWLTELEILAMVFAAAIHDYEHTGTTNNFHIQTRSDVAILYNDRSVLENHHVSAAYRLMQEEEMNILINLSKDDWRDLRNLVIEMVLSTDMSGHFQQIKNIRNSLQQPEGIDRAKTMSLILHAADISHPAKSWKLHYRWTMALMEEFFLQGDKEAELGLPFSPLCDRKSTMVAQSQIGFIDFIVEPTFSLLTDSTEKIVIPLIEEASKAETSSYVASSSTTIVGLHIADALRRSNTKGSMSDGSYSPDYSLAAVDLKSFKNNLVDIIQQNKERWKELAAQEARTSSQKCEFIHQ
T8 sequence (O76083 1-533 isoform O76083-2): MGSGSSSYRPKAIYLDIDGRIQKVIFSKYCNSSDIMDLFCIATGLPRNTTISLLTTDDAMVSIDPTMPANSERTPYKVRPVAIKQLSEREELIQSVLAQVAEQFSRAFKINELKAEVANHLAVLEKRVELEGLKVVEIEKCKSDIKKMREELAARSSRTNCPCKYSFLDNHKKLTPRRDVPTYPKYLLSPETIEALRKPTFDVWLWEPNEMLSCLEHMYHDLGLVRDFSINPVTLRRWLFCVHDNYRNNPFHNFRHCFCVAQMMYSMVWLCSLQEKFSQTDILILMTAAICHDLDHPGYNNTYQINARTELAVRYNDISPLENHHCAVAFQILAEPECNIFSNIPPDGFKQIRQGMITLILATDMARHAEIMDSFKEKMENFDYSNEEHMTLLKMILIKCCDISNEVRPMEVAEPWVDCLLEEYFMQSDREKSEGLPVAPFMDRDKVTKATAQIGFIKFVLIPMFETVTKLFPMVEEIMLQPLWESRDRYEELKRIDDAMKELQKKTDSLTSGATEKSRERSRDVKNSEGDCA
T3 sequence (Q13370 whole entry): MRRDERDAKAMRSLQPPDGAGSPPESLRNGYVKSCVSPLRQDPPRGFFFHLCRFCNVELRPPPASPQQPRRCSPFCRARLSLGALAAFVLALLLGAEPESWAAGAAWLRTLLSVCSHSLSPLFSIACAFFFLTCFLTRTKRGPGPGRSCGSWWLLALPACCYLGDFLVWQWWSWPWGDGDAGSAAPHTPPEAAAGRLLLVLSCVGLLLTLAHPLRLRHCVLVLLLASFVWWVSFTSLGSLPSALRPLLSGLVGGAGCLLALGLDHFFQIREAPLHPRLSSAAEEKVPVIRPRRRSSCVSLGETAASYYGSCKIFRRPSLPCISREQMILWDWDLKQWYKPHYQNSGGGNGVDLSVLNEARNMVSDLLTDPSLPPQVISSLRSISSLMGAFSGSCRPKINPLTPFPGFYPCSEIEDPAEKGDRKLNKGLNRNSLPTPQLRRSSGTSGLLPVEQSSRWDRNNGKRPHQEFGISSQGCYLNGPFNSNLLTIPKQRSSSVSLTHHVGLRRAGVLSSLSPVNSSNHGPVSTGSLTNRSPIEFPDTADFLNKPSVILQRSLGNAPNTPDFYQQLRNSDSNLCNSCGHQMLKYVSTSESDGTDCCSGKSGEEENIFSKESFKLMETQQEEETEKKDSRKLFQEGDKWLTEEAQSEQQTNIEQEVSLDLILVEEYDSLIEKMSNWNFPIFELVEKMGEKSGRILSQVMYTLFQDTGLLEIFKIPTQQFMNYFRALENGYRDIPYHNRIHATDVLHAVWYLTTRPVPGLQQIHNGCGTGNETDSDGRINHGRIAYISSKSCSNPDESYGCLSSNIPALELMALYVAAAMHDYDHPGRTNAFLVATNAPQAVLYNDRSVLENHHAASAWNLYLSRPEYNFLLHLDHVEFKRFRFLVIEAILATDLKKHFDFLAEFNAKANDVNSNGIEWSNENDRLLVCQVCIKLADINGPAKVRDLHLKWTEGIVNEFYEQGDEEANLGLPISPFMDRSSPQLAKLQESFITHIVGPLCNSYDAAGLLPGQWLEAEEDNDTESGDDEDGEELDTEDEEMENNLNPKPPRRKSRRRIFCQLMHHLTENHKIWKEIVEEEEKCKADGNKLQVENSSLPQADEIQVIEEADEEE
T6 sequence (Q13946 1-456 isoform Q13946-2): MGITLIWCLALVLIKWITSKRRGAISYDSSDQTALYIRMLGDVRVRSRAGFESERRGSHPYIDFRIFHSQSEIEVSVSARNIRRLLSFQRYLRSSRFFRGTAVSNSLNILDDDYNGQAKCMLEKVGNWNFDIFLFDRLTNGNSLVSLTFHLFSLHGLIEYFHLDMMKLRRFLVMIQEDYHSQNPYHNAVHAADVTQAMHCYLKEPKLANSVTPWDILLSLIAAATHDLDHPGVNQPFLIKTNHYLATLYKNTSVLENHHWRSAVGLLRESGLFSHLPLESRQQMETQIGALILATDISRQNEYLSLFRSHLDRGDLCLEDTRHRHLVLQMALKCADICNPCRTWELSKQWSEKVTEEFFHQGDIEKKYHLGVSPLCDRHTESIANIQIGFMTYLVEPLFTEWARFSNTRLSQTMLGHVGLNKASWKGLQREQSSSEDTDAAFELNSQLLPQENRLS
T5 sequence (Q08499 1-673 isoform Q08499-2): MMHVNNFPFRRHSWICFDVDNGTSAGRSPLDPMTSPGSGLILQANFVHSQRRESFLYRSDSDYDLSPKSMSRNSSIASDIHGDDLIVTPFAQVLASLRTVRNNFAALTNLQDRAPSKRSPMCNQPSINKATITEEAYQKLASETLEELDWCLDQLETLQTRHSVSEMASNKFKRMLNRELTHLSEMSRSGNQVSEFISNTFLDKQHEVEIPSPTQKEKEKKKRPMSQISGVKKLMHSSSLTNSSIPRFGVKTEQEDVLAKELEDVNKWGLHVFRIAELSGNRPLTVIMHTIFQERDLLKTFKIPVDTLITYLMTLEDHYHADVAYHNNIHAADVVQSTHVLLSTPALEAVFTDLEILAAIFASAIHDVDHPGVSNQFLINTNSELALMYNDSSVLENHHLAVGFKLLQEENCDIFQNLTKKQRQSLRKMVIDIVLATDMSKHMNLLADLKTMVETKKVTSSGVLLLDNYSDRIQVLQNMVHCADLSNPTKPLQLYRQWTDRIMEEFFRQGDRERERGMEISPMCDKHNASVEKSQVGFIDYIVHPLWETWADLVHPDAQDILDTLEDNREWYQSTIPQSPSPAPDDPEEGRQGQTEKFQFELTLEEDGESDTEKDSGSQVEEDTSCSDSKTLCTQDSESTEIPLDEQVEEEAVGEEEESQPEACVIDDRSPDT

As to `OCCN(CCO)c1nc(N2CCCCC2)c2nc(N(CCO)CCO)nc(N3CCCCC3)c2n1` [dipyridamole], the “inhibition of PDE10A” value in experiment [1] is given as “inhibited”.

Regarding `CC(C)C(=O)c1c(C(C)C)nn2ccccc12` [ibudilast, 3-isobutyryl-2-isopropyl pyrazolo[1,5-a]pyridine], the concentration for half-maximal inhibition (IC50) (as a rule, the concentration that inhibits the measured activity by half) in experiment [2] (PDE 1A3, substrate cAMP 2 μM) came to 40 µM; in [2] (PDE 1A3, substrate cGMP 2 μM) it was 121 µM; in [3] it was 78 µM; in [4], 266 µM; in experiment [5] it was 6 µM; in experiment [6] it was 11 µM. Moreover, the 50% inhibitory concentration (IC50) is 6 µM in experiment [7]; 115 µM in [8]; 49 µM in experiment [9]; over 400 µM in experiment [10]; 3 µM in experiment [11] (PDE 10A1, substrate cAMP 0.2 μM); 1 µM in [11] (PDE 10A1, substrate cGMP 2 μM). The IC50 in [12] (PDE 11A1, substrate cAMP 2 μM) amounted to 17 µM; in experiment [12] (PDE 11A1, substrate cGMP 0.2 μM), 36 µM. Moreover, the “inhibition of PDE10A1 compared with other PDEs” value in [11] (in vitro, recombinant human PDE) is recorded as “particularly strong inhibition”.
